Experimental data: patent publication US20260250289A1, “BICYCLIC HETEROCYCLES AND THEIR USE AS WRN INHIBITORS” (Novartis AG, priority 2022, published 2026)
Like-named read-outs stand apart in the source and are kept apart here.

Experiments:
[1] = system: DLD1-WRN-KO cells; assay: Proliferation assay DLD1-WRN-KO (CellTiterGlo, off-target effects); type: cell-based; details: 96 hours, geometric mean of at least 2
How it was run: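 DLD1 cells with CRISPR knockout of WRN were exposed overnight-seeded to eight 3-fold compound dilutions (0.1% DMSO) for 96 h at 37 °C. Viability was read as ATP by CellTiterGlo luminescence against a day-0 plate, giving GI50 and residual viability at top concentration.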

[2] = system: SW48 cells; assay: Proliferation assay SW48 (CellTiterGlo); type: cell-based; details: SW48 colon carcinoma cells, 96 hours, CellTiterGlo, geometric mean of at least 2, read-out: Proliferation Assay SW48 GI50
How it was run: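 Read-out is CellTiterGlo luminescence after 96 hours of compound exposure, with % growth calculated against day-0 and vehicle-treated ATP levels. SW48 seeded at 2,000 cells/well, dosed next day with eight 3-fold serial dilutions, 0.1% DMSO. GI50 reported as geometric mean, at least 2 replicates.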

[3] = target: T1, WRN helicase (aa N517-P1238) (Homo sapiens, UniProt Q14191); assay: WRN ATPase assay (DNA dependent ATP hydrolysis, ADP-Glo); type: biochemical; details: 3 hours pre-incubation, 300 micromolar ATP, FLAP26 DNA; geometric mean of at least 2
T1 construct: The core helicase motif of the WRN protein (aa N517-P1238) was produced for this assay; His (N); ZZ (N); 3C protease cleavage site (N); made in house; host or cells: Sf21 insect cells (baculovirus; virus and BIICs made in SF9)
T1 sequence (Q14191 517-1238): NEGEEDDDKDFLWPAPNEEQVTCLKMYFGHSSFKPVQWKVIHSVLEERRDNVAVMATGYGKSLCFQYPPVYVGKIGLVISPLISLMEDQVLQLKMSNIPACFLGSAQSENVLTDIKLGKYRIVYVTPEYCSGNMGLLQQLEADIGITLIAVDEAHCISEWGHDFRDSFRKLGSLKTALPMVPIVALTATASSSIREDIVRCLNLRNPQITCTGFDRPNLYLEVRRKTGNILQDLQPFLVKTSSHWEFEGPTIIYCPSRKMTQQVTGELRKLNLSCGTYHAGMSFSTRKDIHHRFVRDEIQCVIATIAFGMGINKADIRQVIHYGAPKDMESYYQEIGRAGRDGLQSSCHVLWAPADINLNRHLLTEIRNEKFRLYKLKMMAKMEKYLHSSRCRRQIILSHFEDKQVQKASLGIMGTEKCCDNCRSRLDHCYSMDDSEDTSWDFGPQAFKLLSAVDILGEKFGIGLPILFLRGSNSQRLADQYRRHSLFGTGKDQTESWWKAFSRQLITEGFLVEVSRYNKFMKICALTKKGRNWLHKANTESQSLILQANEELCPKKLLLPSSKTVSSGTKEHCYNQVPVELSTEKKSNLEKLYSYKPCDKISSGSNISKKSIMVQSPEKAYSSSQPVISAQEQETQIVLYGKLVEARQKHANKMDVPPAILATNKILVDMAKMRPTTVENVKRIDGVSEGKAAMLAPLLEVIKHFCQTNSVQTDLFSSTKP
How it was run: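 DNA-dependent ATP hydrolysis detected as ADP by ADP-Glo luminescence, using 300 μM ATP, 0.2 nM FLAP26 substrate and 10 nM WRN aa N517-P1238 (Tris pH 7.5 buffer, 2 mM MgCl2, 50 mM NaCl). IC50s fitted from normalized duplicate half-log dilutions; reported as geometric means of at least 2 replicates.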

SMILES | GI50 [1] | GI50 ([2]; Homo sapiens, SW48, 96 h) | IC50 [3] | GI50 [2]
COC(=O)N1CC=C(c2nc3n(CC(=O)Nc4ccc(Cl)c(C(F)(F)F)c4)c(C)c(N4CCN(C(C)=O)CC4)c(=O)n3n2)CC1 [Example 77, methyl 4-(6-(4-acetylpiperazin-1-yl)-4-(2-((4-chloro-3-(trifluoromethyl)phenyl)amino)-2-oxoethyl)-5-methyl-7-oxo-4,7-dihydro-[1,2,4]triazolo[1,5-a]pyrimidin-2-yl)-5,6-dihydropyridine-1(2H)-carboxylate] | > 10 µM | 4 µM | 0.2 µM | –
Cc1c(N2CCN(C(=O)c3cc(C#N)n[nH]3)CC2)c(=O)n2nc(C3=CCOCC3)nc2n1CC(=O)Nc1ccc(C(F)(F)F)cc1 [Example 164, 2-(6-(4-(3-cyano-1H-pyrazole-5-carbonyl)piperazin-1-yl)-2-(3,6-dihydro-2H-pyran-4-yl)-5-methyl-7-oxo-[1,2,4]triazolo[1,5-a]pyrimidin-4(7H)-yl)-N-(4-(trifluoromethyl)phenyl)acetamide] | > 10 µM | > 10 µM | 0.05 µM | –
CC(=O)N1CCN(c2c(C)n(CC(=O)Nc3ccc(S(F)(F)(F)(F)F)cc3Cl)c3nc(C4=CCOCC4)nn3c2=O)CC1 [Example 73, 2-(6-(4-acetylpiperazin-1-yl)-2-(3,6-dihydro-2H-pyran-4-yl)-5-methyl-7-oxo-[1,2,4]triazolo[1,5-a]pyrimidin-4(7H)-yl)-N-(2-chloro-4-(pentafluoro-l6-sulfaneyl)phenyl)acetamide] | > 10 µM | 2 µM | 0.1 µM | –
CCc1c(N2CCN(C(=O)c3ccn4ccnc4c3O)CC2)c(=O)n2nc(C3=CCOCC3)nc2n1CC(=O)Nc1ccc(C(F)(F)F)cc1C [Example 43, 2-(2-(3,6-dihydro-2H-pyran-4-yl)-5-ethyl-6-(4-(8-hydroxyimidazo[1,2-a]pyridine-7-carbonyl)piperazin-1-yl)-7-oxo-[1,2,4]triazolo[1,5-a]pyrimidin-4(7H)-yl)-N-(2-methyl-4-(trifluoromethyl)phenyl)acetamide] | > 10 µM | 1 µM | 0.08 µM | –
CC(=O)N1CCN(c2c(C)n(CC(=O)Nc3ccc(C(F)(F)F)cc3)c3nc(C4=COCCO4)nn3c2=O)CC1 [Example 104, 2-(6-(4-acetylpiperazin-1-yl)-2-(5,6-dihydro-1,4-dioxin-2-yl)-5-methyl-7-oxo-[1,2,4]triazolo[1,5-a]pyrimidin-4(7H)-yl)-N-(4-(trifluoromethyl)phenyl)acetamide] | > 10 µM | 8 µM | 0.8 µM | –
CCc1c(N2CCN(C(=O)c3ccnc(F)c3O)CC2)c(=O)n2nc(C3=CCOCC3)nc2n1CC(=O)Nc1ccc(C(F)(F)F)cc1Cl [Example 42, N-(2-chloro-4-(trifluoromethyl)phenyl)-2-(2-(3,6-dihydro-2H-pyran-4-yl)-5-ethyl-6-(4-(2-fluoro-3-hydroxyisonicotinoyl)piperazin-1-yl)-7-oxo-[1,2,4]triazolo[1,5-a]pyrimidin-4(7H)-yl)acetamide] | > 10 µM | 0.5 µM | 0.07 µM | –
CCc1ccc(NC(=O)Cn2c(C)c(N3CCN(C(C)=O)CC3)c(=O)n3nc(C4=CCOCC4)nc23)cc1C(F)(F)F [Example 72, 2-(6-(4-acetylpiperazin-1-yl)-2-(3,6-dihydro-2H-pyran-4-yl)-5-methyl-7-oxo-[1,2,4]triazolo[1,5-a]pyrimidin-4(7H)-yl)-N-(4-ethyl-3-(trifluoromethyl)phenyl)acetamide] | > 10 µM | 2 µM | 0.1 µM | –
Cc1c(N2CCN(C(=O)c3c(O)ccc4ccnn34)CC2)c(=O)n2nc(C3=CCOCC3)nc2n1CC(=O)Nc1ccc(C(F)(F)F)cc1 [Example 35, 2-(2-(3,6-dihydro-2H-pyran-4-yl)-6-(4-(6-hydroxypyrazolo[1,5-a]pyridine-7-carbonyl)piperazin-1-yl)-5-methyl-7-oxo-[1,2,4]triazolo[1,5-a]pyrimidin-4(7H)-yl)-N-(4-(trifluoromethyl)phenyl)acetamide] | > 10 µM | 0.3 µM | 0.04 µM | –
CCc1c(N2CCN(C(=O)C3CCOC3)CC2)c(=O)n2nc(C3=CCCCO3)nc2n1CC(=O)Nc1ccc(C(F)(F)F)cc1 (stereo not drawn) [Example 60, 2-(2-(3,4-dihydro-2H-pyran-6-yl)-5-ethyl-7-oxo-6-(4-(tetrahydrofuran-3-carbonyl)piperazin-1-yl)-[1,2,4]triazolo[1,5-a]pyrimidin-4(7H)-yl)-N-(4-(trifluoromethyl)phenyl)acetamide] | > 10 µM | – | 0.3 µM | 3 µM
CC(=O)N1CCN(c2c(C)n(CC(=O)Nc3ccc(C(F)(F)F)cc3)c3nc(C4=CCOCC4)nn3c2=O)C[C@H]1C [Example 63, (R)-2-(6-(4-acetyl-3-methylpiperazin-1-yl)-2-(3,6-dihydro-2H-pyran-4-yl)-5-methyl-7-oxo-[1,2,4]triazolo[1,5-a]pyrimidin-4(7H)-yl)-N-(4-(trifluoromethyl)phenyl)acetamide] | > 10 µM | 4 µM | 0.5 µM | –
CC(=O)N1CCN(c2c(C)n(CC(=O)Nc3ccc(C(F)(F)F)cc3)c3nc(-c4cnn(C(F)F)c4)nn3c2=O)CC1 [Example 128, 2-(6-(4-acetylpiperazin-1-yl)-2-(1-(difluoromethyl)-1H-pyrazol-4-yl)-5-methyl-7-oxo-[1,2,4]triazolo[1,5-a]pyrimidin-4(7H)-yl)-N-(4-(trifluoromethyl)phenyl)acetamide] | > 10 µM | 7 µM | 0.8 µM | –
CCc1c(N2CCN(C(=O)c3nn(C)c(=O)[nH]3)CC2)c(=O)n2nc(C3=CCCC3)nc2n1CC(=O)Nc1ccc(C(F)(F)F)cc1 [Example 12, 2-(2-(cyclopent-1-en-1-yl)-5-ethyl-6-(4-(1-methyl-5-oxo-4,5-dihydro-1H-1,2,4-triazole-3-carbonyl)piperazin-1-yl)-7-oxo-[1,2,4]triazolo[1,5-a]pyrimidin-4(7H)-yl)-N-(4-(trifluoromethyl)phenyl)acetamide] | > 10 µM | 0.8 µM | 0.01 µM | –
CC(=O)N1CCN(c2nc3n(CC(=O)Nc4ccc(Cl)cc4)c(C)c(N4CCN(C(=O)c5ccncc5O)CC4)c(=O)n3n2)CC1 [Example 2, 2-(2-(4-acetylpiperazin-1-yl)-6-(4-(3-hydroxyisonicotinoyl)piperazin-1-yl)-5-methyl-7-oxo-[1,2,4]triazolo[1,5-a]pyrimidin-4(7H)-yl)-N-(4-chlorophenyl)acetamide] | > 10 µM | > 10 µM | 0.3 µM | –
CC(=O)N1CCN(c2c(C)n(CC(=O)Nc3c(C)cc(C(F)(F)F)cc3Cl)c3nc(C4=CCOCC4)nn3c2=O)CC1 [Example 96, 2-(6-(4-acetylpiperazin-1-yl)-2-(3,6-dihydro-2H-pyran-4-yl)-5-methyl-7-oxo-[1,2,4]triazolo[1,5-a]pyrimidin-4(7H)-yl)-N-(2-chloro-6-methyl-4-(trifluoromethyl)phenyl)acetamide] | > 10 µM | 3 µM | 0.8 µM | –
CCc1c(N2CCN(C(=O)c3c(O)ccc4nccn34)CC2)c(=O)n2nc(C3=CCOCC3)nc2n1CC(=O)Nc1ccc(C(F)(F)F)cc1Cl [Example 46, N-(2-chloro-4-(trifluoromethyl)phenyl)-2-(2-(3,6-dihydro-2H-pyran-4-yl)-5-ethyl-6-(4-(6-hydroxyimidazo[1,2-a]pyridine-5-carbonyl)piperazin-1-yl)-7-oxo-[1,2,4]triazolo[1,5-a]pyrimidin-4(7H)-yl)acetamide] | > 10 µM | 0.2 µM | 0.09 µM | –
Cc1c(N2CCN(C(=O)c3cc(F)ccc3O)CC2)c(=O)n2nc(C3=CCOCC3)nc2n1CC(=O)Nc1ccc(C(F)(F)F)cc1 [Example 17, 2-(2-(3,6-dihydro-2H-pyran-4-yl)-6-(4-(5-fluoro-2-hydroxybenzoyl)piperazin-1-yl)-5-methyl-7-oxo-[1,2,4]triazolo[1,5-a]pyrimidin-4(7H)-yl)-N-(4-(trifluoromethyl)phenyl)acetamide] | 8 µM | 0.9 µM | 0.05 µM | –
Cc1nc2ccccc2c(C(=O)N2CCN(c3c(C)n(CC(=O)Nc4ccc(C(F)(F)F)cc4)c4nc(C5=CCOCC5)nn4c3=O)CC2)c1O [Example 20, 2-(2-(3,6-dihydro-2H-pyran-4-yl)-6-(4-(3-hydroxy-2-methylquinoline-4-carbonyl)piperazin-1-yl)-5-methyl-7-oxo-[1,2,4]triazolo[1,5-a]pyrimidin-4(7H)-yl)-N-(4-(trifluoromethyl)phenyl)acetamide] | > 10 µM | 1 µM | 0.09 µM | –
CCc1c(N2CCN(C(C)=O)CC2)c(=O)n2nc(C3=CCOCC3)nc2n1CC(=O)Nc1ccc(C(F)(F)F)cc1C [Example 58, 2-(6-(4-acetylpiperazin-1-yl)-2-(3,6-dihydro-2H-pyran-4-yl)-5-ethyl-7-oxo-[1,2,4]triazolo[1,5-a]pyrimidin-4(7H)-yl)-N-(2-methyl-4-(trifluoromethyl)phenyl)acetamide] | > 10 µM | 2 µM | 0.1 µM | –
